Experiments:
osteoblasts = experiment: Osteoblast adhesion on POSS-coated titanium; assay type: cell-based; settings: from Table 2 findings
Description: (§1) [(RSiO1.5)4(Rl(OH)SiO1.0)3]Σ7 (1 g) was dissolved in dichlormethane and sprayed onto metallic titanium samples. The samples were then dried at 110° C. for 2 hours.
(§2) Experimental samples with 50% surface coverage of POSS were exposed to osteoblasts and fibroblasts cultured in Dulbecco's modified eagle medium (DMEM), supplemented with 10% fetal bovine serum (FBS) and 1% penicillin streptomycin (P/S), under standard cell culture conditions (sterile chamber maintained at 37° C. and a humidified environment: 5% CO2/95% air). The stock solutions were supplied by HyClone.
(§3) For this purpose, osteoblasts, and fibroblasts were separately seeded (10,000 cells cm^2) onto the experimental titanium substrate, and were allowed to adhere in standard cell culture conditions for 48 hours. After the prescribed time period, substrates were rinsed three times using phosphate-buffered saline (PBS) to remove non-adherent cells. The adhered cells were fixed with formaldehyde (Fisher), stained with Hoechst 33 258 dye (Sigma), and counted using fluorescence microscopy (365 nm excitation and 400 nm emission wavelengths). The findings in Table 2 indicate a clear differentiation in binding a cellular modulation relative to the type of R group present on the cage.
(§4) All experiments were run in triplicate, and repeated three different times.

bone = experiment: Bone formation in vitro (OsteoPOSS); assay type: cell-based; settings: FIG. 6
rat calvaria bone defect = experiment: POSS-bone samples implanted in vivo into rat calvaria as a bone defect; settings: eight POSS-bone samples 5 mm in length; examined after one month
[1] = system: cuts through the endermal skin layer; experiment: FibroPOSS treatment of cuts in a human arm; assay type: in vivo
Description: Based upon the differentiation from Example 1, a series of in vivo FibroPOSS examinations was made using [(isoOctylSiO1.5)4(isoOctyl(OH)SiO1.0)3]Σ7 and [([…])8]Σ8. In a human arm a series of six cuts were made through the endermal skin layer.
The top two cuts were treated with 100% [(isoOctylSiO1.5)4(isoOctyl(OH)SiO1.0)3]Σ7(SO1455) and [(isoOctylSiO1.5)8]Σ8 (MS0805).
The middle two cuts had 50/50 SO1450+bactin antibiotic and 50/50 MS0805+bactin antibiotic.
The bottom left cuts had 100% bactin antibiotic and the bottom right cut had no treatment.

fibroblasts = experiment: Fibroblast adhesion on POSS-coated titanium; assay type: cell-based; settings: from Table 2 findings
Description: as §1, §2, §3, §4

[2] = Dispersion of POSS compounds in personal care and cosmetic products; assay type: physicochemical; settings: approximately 5% POSS by weight
Description: In light of the observed cellular differentiation and modulation promoted by nanostructured chemicals, a series of POSS, POS and POMS were added to conventional personal care and cosmetic products. […] A summary of the products and finding is listed below.
Each sample prepared consisted of approximately 5% of POSS by weight and was inspected visually and by biometric techniques for the dispersion of the POSS compound. The products in which the POSS compounds could be dispersed without being felt are listed under the POSS compounds studied.

Osteoblast binding preference by R group on the cage (osteoblasts)	Fibroblast binding preference by R group on the cage (fibroblasts)	Observation on product after POSS addition ([2]; Dial Antibacterial Hand Soap)	Observation on product after POSS addition ([2]; Isoplus Styling Gel)	Observation on product after POSS addition ([2]; Ivory Hand Soap)	Observation on product after POSS addition ([2]; Right Guard Deodorant)	Observation on product after POSS addition ([2]; Suave Shampoo)	Compound	Bone formation in vitro (bone)	Appearance of bone implantation site (rat calvaria bone defect)	Bleeding of cut after treatment [1]	Clotting of cut after treatment [1]
osteoblast exhibited a preference	–	–	–	–	–	–	O[Si]1(c2ccccc2)O[Si]2(c3ccccc3)O[Si](O)(c3ccccc3)O[Si]3(c4ccccc4)O[Si](O)(c4ccccc4)O[Si](c4ccccc4)(O1)O[Si](c1ccccc1)(O2)O3 (stereo not shown) [[(phenylSiO1.5)4(phenyl(OH)SiO1.0)3]Σ7]	form bone in vitro	indistinguishable from normal rat bone	–	–
–	–	–	–	–	–	–	[(isoOctylSiO1.5)8]Σ8 [MS0805]	–	–	did not show any bleeding	nor was visible clotting observed
–	fibroplasts preferred	remained clear	became thicker	remained clear	became thicker	remained clear	[(isoOctylSiO1.5)4(isoOctyl(OH)SiO1.0)3]Σ7 [SO1455]	–	–	did not show any bleeding	nor was visible clotting observed

— patent publication US7572872B2, “Biomimetic materials comprising polyhedral oligomeric silsesquioxanes” (priority 2005, dated 2009)
